# Molecular target: T1, Mcl-1/Bim interaction, recombinant human Mcl-1 (171-327) (Homo sapiens, UniProt Q07820)
# T1 construct: made in house
# Test: Cell free Mcl-1: Bim Affinity Assay (Mcl-1 HTRF)
# Format: binding
# Details: TR-FRET, 0.1 nM Mcl-1 (171-327), 0.05 nM biotin-Bim (51-76)
# Protocol: Cell free Mcl-1: Bim Affinity Assay (Mcl-1 HTRF)
# The inhibition of the Mcl-1/Bim interaction was measured using a time-resolved fluorescence resonance energy transfer (TR-FRET) assay. […] A biotinylated peptide derived from human Bim (residues 51-76) was purchased from CPC Scientific (San Jose, CA). The TR-FRET assay was conducted in a 384-well white OptiPlatem (PerkinElmer, Waltham, MA) in a total volume of 40 μL. […] The reaction plates were further incubated overnight and then were read on an Envision® multimode reader (PerkinElmer). […] The IC50 values of test compounds were determined from duplicate data by analyzing competition curves using a four-parameter sigmoidal model in GraphPad Prism (GraphPad Software, San Diego, CA) or in Genedata Screener® (Genedata, Basel, Switzerland).
# T1 sequence (Q07820 171-327): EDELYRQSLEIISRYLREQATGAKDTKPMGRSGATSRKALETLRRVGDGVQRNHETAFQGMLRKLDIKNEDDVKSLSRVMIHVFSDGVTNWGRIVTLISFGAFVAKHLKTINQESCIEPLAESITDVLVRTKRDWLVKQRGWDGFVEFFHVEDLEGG
row,Compound,IC50 [nM]
1,CCN1CC/C=C/[C@H](OC)[C@@H]2CC[C@H]2CN2C[C@@]3(CCCc4cc(Cl)ccc43)COc3ccc(cc32)C(=O)NS1(=O)=O [Example 45],2.3
2,"C[C@@H]1CC/C=C/[C@H](O)[C@]2(C)CC[C@H]2CN2C[C@@]3(CCCc4cc(Cl)ccc43)COc3ccc(cc32)C(=O)NS1(=O)=O (single isomer, unassigned) [Example 116]",0.856
3,CCC1CCC=CC(OC(C)C(=O)N(C)C)C2CCC2CN2CC3(CCCc4cc(Cl)ccc43)COc3ccc(cc32)C(=O)NS1(=O)=O (mixture of isomers) [Example 985],1.46

# More lines, now with the values ahead:
row,IC50 [nM],Compound
1,17.8,"CO[C@@H]1CCCCCS(=O)(=O)NC(=O)c2ccc3c(c2)N(C[C@@H]2CC[C@H]21)C[C@@]1(CCCc2cc(Cl)ccc21)CO3 [Example 1094, (1S,3′R,6′R,7′R)-6-chloro-7′-methoxy-3,4-dihydro-2H,15′H-spiro [naphthalene-1,22′-[20]oxa[13]thia[1,14]diazatetracyclo[14.7.2.0^3,6.0^19,24]pentacosa [16,18,24]trien]-15′-one 13′,13′-dioxide]"
2,0.859,"CC[C@@H]1CC/C=C/[C@H](OCCO)[C@@H]2CC[C@H]2CN2C[C@@]3(CCCc4cc(Cl)ccc43)COc3ccc(cc32)C(=O)NS1(=O)=O [Example 970, (1S,3′R,6′R,7′S,8′E,12′R)-6-chloro-12′-ethyl-7′-(2-hydroxyethoxy)-3,4-dihydro-2H,15′H-spiro[naphthalene-1,22′-[20]oxa[13]thia[1,14]diazatetracyclo[14.7.2.0^3,6.0^19,24]pentacosa [8,16,18,24]tetraen]-15′-one 13′,13′-dioxide]"
3,3.14,"CC[C@@H]1CC/C=C/[C@H](OCC#N)[C@@H]2CC[C@H]2CN2C[C@@]3(CCCc4cc(Cl)ccc43)COc3ccc(cc32)C(=O)NS1(=O)=O [Example 982, (((1S,3′R,6′R,7′S,8′E,12′R)-6-chloro-12′-ethyl-13′,13′-dioxido-15′-oxo-3,4-dihydro-2H-spiro[naphthalene-1,22′-[20]oxa[13]thia[1,14]diazatetracyclo[14.7.2.0^3,6.0^19,24]pentacosa [8,16,18,24]tetraen]-7′-yl)oxy)acetonitrile]"
4,3.14,"CC[C@@H]1CC/C=C/[C@H](OCC(=O)Nc2ccncc2)[C@@H]2CC[C@H]2CN2C[C@@]3(CCCc4cc(Cl)ccc43)COc3ccc(cc32)C(=O)NS1(=O)=O [Example 1000, 2-(((1S,3′R,6′R,7′S,8′E,12′R)-6-chloro-12′-ethyl-13′,13′-dioxido-15′-oxo-3,4-dihydro-2H-spiro[naphthalene-1,22′-[20]oxa[13]thia[1,14]diazatetracyclo[14.7.2.0^3,6.0^19,24]pentacosa [8,16,18,24]tetraen]-7′-yl)oxy)-N-4-pyridinylacetamide]"

# Same assay, conditions: cell free Mcl-1:Bim TR-FRET, recombinant human Mcl-1 (171-327)
row,Compound,IC50 [nM]
1,"O=C1NS(=O)(=O)CCCOC[C@@H](O)[C@@H]2CC[C@H]2CN2C[C@@]3(CCCc4cc(Cl)ccc43)COc3ccc1cc32 (single isomer, unassigned) [Example 923, (3R,6R,7S,22S)-6′-chloro-7-hydroxy-3′,4′-dihydro-2′H,15H-spiro[9,20-dioxa-13-thia-1,14-diazatetracyclo[14.7.2.0^3,6.0^19,24]pentacosa-16,18,24-triene-22,1′-naphthalen]-15-one 13,13-dioxide or (3R,6R,7R,22S)-6′-chloro-7-hydroxy-3′,4′-dihydro-2′H,15H-spiro[9,20-dioxa-13-thia-1,14-diazatetracyclo[14.7.2.0^3,6.0^19,24]pentacosa-16,18,24-triene-22,1′-naphthalen]-15-one 13,13-dioxide]",17.8
2,"O=C1NS(=O)(=O)CCCCC[C@@H](CO)[C@@H]2CC[C@H]2CN2C[C@@]3(CCCc4cc(Cl)ccc43)COc3ccc1cc32 (single isomer, unassigned) [Example 906, (1S,3′R,6′R,7′R)-6-chloro-7′-(hydroxymethyl)-3,4-dihydro-2H,15′H-spiro[naphthalene-1,22′-[20]oxa[13]thia[1,14]diazatetracyclo[14.7.2.0^3,6.0^19,24]pentacosa [16,18,24]trien]-15′-one 13′,13′-dioxide or (1S,3′R,6′R,7′)-6-chloro-7′-(hydroxymethyl)-3,4-dihydro-2H,15′H-spiro[naphthalene-1,22′-[20]oxa[13]thia[1,14]diazatetracyclo[14.7.2.0^3,6.0^19,24]pentacosa [16,18,24]trien]-15′-one 13′,13′-dioxide]",9.03
3,"CN(C(=O)C1CC1)C1CCCCCS(=O)(=O)NC(=O)c2ccc3c(c2)N(CC2CCC21)CC1(CCCc2cc(Cl)ccc21)CO3 (single isomer, unassigned) [Example 942]",36.4
4,"O=C1NS(=O)(=O)CCCCC[C@@H](NC(=O)C2CC2)[C@@H]2CC[C@H]2CN2C[C@@]3(CCCc4cc(Cl)ccc43)COc3ccc1cc32 (single isomer, unassigned) [Example 937]",4.75
5,"C[C@@H]1CC/C=C/C(=O)[C@@H]2CC[C@H]2CN2C[C@@]3(CCCc4cc(Cl)ccc43)COc3ccc(cc32)C(=O)NS1(=O)=O [Example 604, (1S,3′R,6′R,8′E,12′R)-6-chloro-12′-methyl-3,4-dihydro-2H,7′H,15′H-spiro[naphthalene-1,22′-[20]oxa[13]thia[1,14]diazatetracyclo[14.7.2.0^3,6.0^19,24]pentacosa [8,16,18,24]tetraene]-7′,15′-dione 13′,13′-dioxide]",9.58
6,"O=C1NS(=O)(=O)CCCCC[C@@H](NO)[C@@H]2CC[C@H]2CN2C[C@@]3(CCCc4cc(Cl)ccc43)COc3ccc1cc32 (single isomer, unassigned) [Example 933, (1S,3′R,6′R,7′R)-6-chloro-7′-(hydroxyamino)-3,4-dihydro-2H,15′H-spiro[naphthalene-1,22′-[20]oxa[13]thia[1,14]diazatetracyclo[14.7.2.0^3,6.0^19,24]pentacosa [16,18,24]trien]-15′-one 13′,13′-dioxide or (1S,3′R,6′R,7′S)-6-chloro-7′-(hydroxyamino)-3,4-dihydro-2H,15′H-spiro[naphthalene-1,22′-[20]oxa[13]thia[1,14]diazatetracyclo[14.7.2.0^3,6.0^19,24]pentacosa [16,18,24]trien]-15′-one 13′,13′-dioxide]",15
7,"O=C1NS(=O)(=O)CCCCC[C@@H]2CC[C@H]2CN2C[C@@]3(CCCc4cc(Cl)ccc43)COc3ccc1cc32 [Example 818, (1S,3′R,6′R)-6-chloro-3,4-dihydro-2H,14′H-spiro[naphthalene-1,21′-[19]oxa[12]thia[1,13]diazatetracyclo[13.7.2.0^3,6.0^18,23]tetracosa[15,17,23]trien]-14′-one 12′,12′-dioxide]",13.6
8,"CC[C@H]1CC/C=C/[C@H](O)[C@@H]2CC[C@H]2CN2C[C@@]3(CCc4cc(Cl)ccc43)COc3ccc(cc32)C(=O)NS1(=O)=O (single isomer, unassigned) [Example 700]",27.7
9,"O=C(CO)N[C@@H]1CCCCCS(=O)(=O)NC(=O)c2ccc3c(c2)N(C[C@@H]2CC[C@H]21)C[C@@]1(CCCc2cc(Cl)ccc21)CO3 (single isomer, unassigned) [Example 939]",6.67
10,"CC(=O)N(C)[C@@H]1CCCCCS(=O)(=O)NC(=O)c2ccc3c(c2)N(C[C@@H]2CC[C@H]21)C[C@@]1(CCCc2cc(Cl)ccc21)CO3 (single isomer, unassigned) [Example 941]",8.33
11,"O=C1NS(=O)(=O)CCCCC[C@@H]2CC[C@H]2CN2C[C@@]3(CCCc4ccccc43)COc3ccc1cc32 [Example 823, (1S,3′R,6′R)-3,4-dihydro-2H,14′H-spiro[naphthalene-1,21′-[19]oxa[12]thia[1,13]diazatetracyclo[13.7.2.0^3,6.0^18,23]tetracosa [15,17,23]trien]-14′-one 12′,12′-dioxide]",48.2
12,"C[C@H]1CCCC(=O)[C@@H]2CC[C@H]2CN2C[C@@]3(CCCc4cc(Cl)ccc43)COc3ccc(cc32)C(=O)NS1(=O)=O (single isomer, unassigned) [Example 760]",15.8
13,"CN(C(=O)C1CC1)[C@@H]1CCCCCS(=O)(=O)NC(=O)c2ccc3c(c2)N(C[C@@H]2CC[C@H]21)C[C@@]1(CCCc2cc(Cl)ccc21)CO3 (single isomer, unassigned) [Example 943]",16.2
14,"O=C1NS(=O)(=O)CCOCC[C@H](O)[C@@H]2CC[C@H]2CN2C[C@@]3(CCCc4cc(Cl)ccc43)COc3ccc1cc32 [Example 779, (3′R,6′R,7S,22S)-6′-chloro-7-hydroxy-3′,4′-dihydro-2′H,15H-spiro[10,20-dioxa-13-thia-1,14-diazatetracyclo[14.7.2.0^3,6.0^19,24]pentacosa-16,18,24-triene-22, 1′-naphthalen]-15-one-13, 13-dioxide or (3′R,6′R,7R,22S)-6′-chloro-7-hydroxy-3′,4′-dihydro-2′H,15H-spiro[10,20-dioxa-13-thia-1,14-diazatetracyclo[14.7.2.0^3,6.0^19,24]pentacosa-16,18,24-triene-22, 1′-naphthalen]-15-one-13, 13-dioxide]",5.55
15,"O=C1C[C@H](O)[C@@H]2CC[C@H]2CN2C[C@@]3(CCCc4cc(Cl)ccc43)COc3ccc(cc32)C(=O)NS(=O)(=O)CCN1 (single isomer, unassigned) [Example 681]",29
16,"O=C1NS(=O)(=O)CCCCCC[C@H](O)[C@@H]2CC[C@H]2CN2C[C@@]3(CCCc4cc(Cl)ccc43)COc3ccc1cc32 [Example 835, (1S,3′R,6′R,7′S)-6-chloro-7′-hydroxy-3,4-dihydro-2H,16′H-spiro[naphthalene-1,23′[21]oxa[14]thia[1,15]diazatetracyclo[15.7.2.0^3,6.0^20,25]hexacosa[17,19,25]trien]-16′-one 14′,14′-dioxide]",3.44

# Source: patent US12091425B2 (AMGEN INC., priority 2016, dated 2024)
